Measured values from ChEMBL document CHEMBL6087436, “The novel β-hairpin antimicrobial peptide D-G(RF)3 demonstrates exceptional antibacterial efficacy” (Eur J Med Chem, 2025).
Activity calls are given as the source filed them. No cut-off for these calls is given here. Where a SMILES comes first, the peptide text is derived from it. Bridges are numbered along the chain shown (N, C = ends). [ ]: non-standard residue; d: D form. The star is where a group is joined. X1 = CC[C@H](C)CCCCC(=O)*; dDab = NCC[C@@H](N)C(=O)O; Dab = NCC[C@H](N)C(=O)O

Columns and labels:
[1] = Acute toxicity in male balb/c mouse assessed as inflammatory cell infiltration in lung administered intraperitoneally by H and E staining based analysis; format: tissue-based; details: in vivo, ip
[2] = Acute toxicity in IP dosed male balb/c mouse assessed as animal death; format: organism-based; details: in vivo
[3] = Acute toxicity in male balb/c mouse assessed as alveolar shrinkage in lung administered intraperitoneally by H and E staining based analysis; format: tissue-based; details: in vivo, ip
[4] = Acute toxicity in male balb/c mouse assessed as lethal dose at ip administration; format: organism-based; details: in vivo
[5] = Acute toxicity in male balb/c mouse assessed as respiratory depression by measuring tissue bleeding in lung administered intraperitoneally by H and E staining based analysis; details: in vivo, ip
[6] = system: Klebsiella pneumoniae; experiment: Inhibition of biofilm formation in Klebsiella pneumoniae ATCC 700603 incubated for 24 hrs by crystal violet staining based analysis; format: functional, organism-based; details: dose 1-32 µM
[7] = system: Klebsiella pneumoniae; experiment: In vivo antibacterial activity against Klebsiella pneumoniae ATCC 700603 infected in male Balb/c mouse lung infection model assessed as reduction in serous exudation of alveolar cavities at 10 mg/kg, ip measured after 24 hrs by H and E staining based analysis; format: functional, organism-based
[8] = system: Escherichia coli; experiment: Inhibition of biofilm formation in Escherichia coli ATCC 25922 at 1 uM incubated for 24 hrs by crystal violet staining based analysis; format: functional, organism-based
[9] = system: Klebsiella pneumoniae; experiment: In vivo antibacterial activity against Klebsiella pneumoniae ATCC 700603 infected in male Balb/c mouse lung infection model assessed as reduction in alveoli expansion at 10 mg/kg, ip measured after 24 hrs by H and E staining based analysis; format: functional, organism-based
[10] = system: Escherichia coli; experiment: Antimicrobial activity against Escherichia coli at 2 times MIC in presence of LPS preincubated for 1 hr followed by bacterial addition and measured after 6 hrs by LPS competitive inhibition assay; format: functional, organism-based
[11] = system: Cell membrane; experiment: Induction of cell membrane permeability in Escherichia coli assessed as rough convex surface at 2 times MIC by SEM analysis; format: subcellular
[12] = system: Escherichia coli; experiment: Inhibition of biofilm formation in Escherichia coli ATCC 25922 incubated for 24 hrs by crystal violet staining based analysis; format: functional, organism-based; details: dose 1-32 µM
[13] = system: Klebsiella pneumoniae; experiment: In vivo antibacterial activity against Klebsiella pneumoniae ATCC 700603 infected in male Balb/c mouse lung infection model assessed as reduction in crumpling alveoli at 10 mg/kg, ip measured after 24 hrs by H and E staining based analysis; format: functional, organism-based
[14] = system: Klebsiella pneumoniae; experiment: In vivo antibacterial activity against Klebsiella pneumoniae ATCC 700603 infected in male Balb/c mouse lung infection model assessed as increase on compensatory dilation at 5 mg/kg, ip and measured after 24 hrs; format: functional, organism-based
[15] = system: Escherichia coli; experiment: Inhibition of biofilm formation in Escherichia coli ATCC 25922 at >= 2 uM incubated for 24 hrs by crystal violet staining based analysis; format: functional, organism-based
[16] = system: Cell membrane; experiment: Induction of Outer membrane permeabilization in Escherichia coli at 8 uM by NPN-dye based fluorescence analysis; format: subcellular
[17] = system: Staphylococcus aureus; experiment: Inhibition of biofilm formation in Staphylococcus aureus ATCC 25923 incubated for 24 hrs by crystal violet staining based analysis; format: functional, organism-based; details: dose 1-32 µM
[18] = system: Pseudomonas aeruginosa; experiment: Inhibition of biofilm formation in Pseudomonas aeruginosa ATCC 27853 incubated for 24 hrs by crystal violet staining based analysis; format: functional, organism-based; details: dose 1-32 µM
[19] = system: Klebsiella pneumoniae; experiment: Inhibition of biofilm formation in Klebsiella pneumoniae ATCC 700603 at 1 uM incubated for 24 hrs by crystal violet staining based analysis; format: functional, organism-based
[20] = system: Staphylococcus aureus; experiment: Antibacterial activity against Staphylococcus aureus ATCC 25923 assessed as fold decrease in presence of 150 mM NaCl; format: functional
[21] = system: Pseudomonas aeruginosa; experiment: Antibacterial activity against Pseudomonas aeruginosa ATCC 27853 assessed as inhibition of bacterial growth incubated for 18 hrs by microbroth dilution assay; format: functional
[22] = system: Pseudomonas aeruginosa; experiment: Induction of drug resistance in Pseudomonas aeruginosa ATCC 27853 assessed as fold increase in MIC incubated for 24 hrs and measured under 40 passages; format: functional
[23] = system: Staphylococcus aureus; experiment: Antibacterial activity against Staphylococcus aureus ATCC 25923 assessed as fold change in activity in presence of 2 mM CaCl2; format: functional
[24] = system: Klebsiella pneumoniae; experiment: In vivo antibacterial activity against Klebsiella pneumoniae ATCC 700603 infected in male Balb/c mouse lung infection model assessed as reduction in pulmonary bacterial load at 5 mg/kg, ip measured after 24 hrs (reference value: 3.05 x 10^9 CFU/g); format: functional
[25] = system: Klebsiella pneumoniae; experiment: Antibacterial activity against Klebsiella pneumoniae ATCC 700603 assessed as inhibition of bacterial growth incubated for 18 hrs by microbroth dilution assay; format: functional
[26] = system: Staphylococcus aureus; experiment: Synergistic antibacterial activity against Staphylococcus aureus assessed as fractional inhibitory concentration index in presence of bacitracin incubated for 18 hrs by checkerboard method; format: functional
[27] = system: Pseudomonas aeruginosa; experiment: Synergistic antibacterial activity against Pseudomonas aeruginosa assessed as fractional inhibitory concentration index in presence of polymyxin B incubated for 18 hrs by checkerboard method; format: functional
[28] = system: Klebsiella pneumoniae; experiment: Bactericidal activity against Klebsiella pneumoniae ATCC 700603 assessed as bacterial eradication by measuring bacterial counts at 2 times MIC measured after 30 mins by Time killing assay relative to control; format: functional; details: 0.5 h
[29] = system: Klebsiella pneumoniae; experiment: In vivo antibacterial activity against Klebsiella pneumoniae ATCC 700603 infected in male Balb/c mouse lung infection model assessed as reduction in pulmonary bacterial load at 10 mg/kg, ip measured after 24 hrs (reference value: 3.05 x 10^9 CFU/g); format: functional
[30] = system: Staphylococcus epidermidis; experiment: Antibacterial activity against Staphylococcus epidermidis ATCC 12228 assessed as inhibition of bacterial growth incubated for 18 hrs by microbroth dilution assay; format: functional
[31] = system: Klebsiella pneumoniae; experiment: Synergistic antibacterial activity against Klebsiella pneumoniae assessed as fractional inhibitory concentration index in presence of rifampin incubated for 18 hrs by checkerboard method; format: functional
[32] = system: Klebsiella pneumoniae; experiment: Additive antibacterial activity against Klebsiella pneumoniae assessed as fractional inhibitory concentration index in presence of kanamycin incubated for 18 hrs by checkerboard method; format: functional
[33] = system: Escherichia coli; experiment: Synergistic antibacterial activity against Escherichia coli assessed as fractional inhibitory concentration index in presence of rifampin incubated for 18 hrs by checkerboard method; format: functional
[34] = system: Pseudomonas aeruginosa; experiment: Synergistic antibacterial activity against Pseudomonas aeruginosa assessed as fractional inhibitory concentration index in presence of imipenem incubated for 18 hrs by checkerboard method; format: functional
[35] = system: Staphylococcus aureus; experiment: Antibacterial activity against Staphylococcus aureus ATCC 25923 assessed as fold change in activity in presence of 1 mM MgCl2; format: functional
[36] = system: Staphylococcus aureus; experiment: Additive antibacterial activity against Staphylococcus aureus assessed as fractional inhibitory concentration index in presence of ciprofloxacin incubated for 18 hrs by checkerboard method; format: functional
[37] = system: Bacillus subtilis; experiment: Antibacterial activity against Bacillus subtilis ATCC 23857 assessed as inhibition of bacterial growth incubated for 18 hrs by microbroth dilution assay; format: functional
[38] = system: Staphylococcus aureus; experiment: Antibacterial activity against Staphylococcus aureus ATCC 25923 assessed as inhibition of bacterial growth incubated for 18 hrs by microbroth dilution assay; format: functional
[39] = system: Pseudomonas aeruginosa; experiment: Synergistic antibacterial activity against Pseudomonas aeruginosa assessed as fractional inhibitory concentration index in presence of rifampin incubated for 18 hrs by checkerboard method; format: functional
[40] = system: Escherichia coli; experiment: Synergistic antibacterial activity against Escherichia coli assessed as fractional inhibitory concentration index in presence of kanamycin incubated for 18 hrs by checkerboard method; format: functional
[41] = system: Escherichia coli; experiment: Antibacterial activity against Escherichia coli ATCC 25922 assessed as inhibition of bacterial growth incubated for 18 hrs by microbroth dilution assay; format: functional

## CC(C)CCCCC(=O)N[C@@H](CCN)C(=O)N[C@H](C(=O)N[C@@H](CCN)C(=O)N[C@H]1CCNC(=O)[C@H]([C@@H](C)O)NC(=O)[C@H](CCN)NC(=O)[C@H](CCN)NC(=O)[C@H](CC(C)C)NC(=O)[C@@H](Cc2ccccc2)NC(=O)[C@H](CCN)NC1=O)[C@@H](C)O.CC[C@H](C)CCCCC(=O)N[C@@H](CCN)C(=O)N[C@H](C(=O)N[C@@H](CCN)C(=O)N[C@H]1CCNC(=O)[C@H]([C@@H](C)O)NC(=O)[C@H](CCN)NC(=O)[C@H](CCN)NC(=O)[C@H](CC(C)C)NC(=O)[C@@H](Cc2ccccc2)NC(=O)[C@H](CCN)NC1=O)[C@@H](C)O (X1-[Dab]T[Dab][Dab][Dab][dF]L[Dab][Dab]T; lactam 4-C) [listing 1 of 2 here]
[1]
  Activity: Toxic
[2]
  Activity: Toxic
[3]
  Activity: Toxic
[4]
  LD50: 17.9 mg/kg
[5]
  Activity: Toxic

## CC(C)CCCCC(=O)N[C@@H](CCN)C(=O)N[C@H](C(=O)N[C@@H](CCN)C(=O)N[C@H]1CCNC(=O)[C@H]([C@@H](C)O)NC(=O)[C@H](CCN)NC(=O)[C@H](CCN)NC(=O)[C@H](CC(C)C)NC(=O)[C@@H](Cc2ccccc2)NC(=O)[C@@H](CCN)NC1=O)[C@@H](C)O.CC[C@H](C)CCCCC(=O)N[C@@H](CCN)C(=O)N[C@H](C(=O)N[C@@H](CCN)C(=O)N[C@H]1CCNC(=O)[C@H]([C@@H](C)O)NC(=O)[C@H](CCN)NC(=O)[C@H](CCN)NC(=O)[C@H](CC(C)C)NC(=O)[C@@H](Cc2ccccc2)NC(=O)[C@@H](CCN)NC1=O)[C@@H](C)O (X1-[Dab]T[Dab][Dab][dDab][dF]L[Dab][Dab]T; lactam 4-C)
[6]
  inhibition: Dose-dependent-effect
[7]
  Activity: Active
[8]
  inhibition: Active
[9]
  Activity: Active
[10]
  Activity: inactive
[11]
  Activity: Active
[12]
  inhibition: Dose-dependent-effect
[13]
  Activity: Active
[14]
  Activity: Active
[15]
  inhibition: Active
[16]
  Activity: Active
[17]
  inhibition: Dose-dependent-effect
[18]
  inhibition: Dose-dependent-effect
[19]
  inhibition: Active

## CC(C)CCCCC(=O)N[C@@H](CCN)C(=O)N[C@H](C(=O)N[C@@H](CCN)C(=O)N[C@H]1CCNC(=O)[C@H]([C@@H](C)O)NC(=O)[C@H](CCN)NC(=O)[C@H](CCN)NC(=O)[C@H](CC(C)C)NC(=O)[C@@H](Cc2ccccc2)NC(=O)[C@H](CCN)NC1=O)[C@@H](C)O.CC[C@H](C)CCCCC(=O)N[C@@H](CCN)C(=O)N[C@H](C(=O)N[C@@H](CCN)C(=O)N[C@H]1CCNC(=O)[C@H]([C@@H](C)O)NC(=O)[C@H](CCN)NC(=O)[C@H](CCN)NC(=O)[C@H](CC(C)C)NC(=O)[C@@H](Cc2ccccc2)NC(=O)[C@H](CCN)NC1=O)[C@@H](C)O (X1-[Dab]T[Dab][Dab][Dab][dF]L[Dab][Dab]T; lactam 4-C) [listing 2 of 2 here]
[20]
  fold change (FC): -4
[21]
  MIC: 2 µM
[22]
  fold change (FC): 8
[23]
  fold change (FC): -2
[24]
  Activity: 1.48 10^8CFU/g
[25]
  MIC: 2 µM
[26]
  fractional inhibitory concentration index (FICI): 0.5
[27]
  fractional inhibitory concentration index (FICI): 0.188
[28]
  Activity: 100%
[29]
  Activity: 2.46 10^8CFU/g
[30]
  MIC: 8 µM
[31]
  fractional inhibitory concentration index (FICI): 0.375
[32]
  fractional inhibitory concentration index (FICI): 0.563
[33]
  fractional inhibitory concentration index (FICI): 0.313
[34]
  fractional inhibitory concentration index (FICI): 0.313
[35]
  fold change (FC): -2
[36]
  fractional inhibitory concentration index (FICI): 0.75
[37]
  MIC: 4 µM
[38]
  MIC: 8 µM
[39]
  fractional inhibitory concentration index (FICI): 0.313
[40]
  fractional inhibitory concentration index (FICI): 0.313
[41]
  MIC: 2 µM
